What was measured:
[1] = tested on: primary human fibroblasts derived from IPF patients (LL29 cells); assay: Inhibition of the fibrotic process in TGF-β1 treated IPF patient fibroblasts (αSMA staining); type: cell-based; settings: Fibroblast, 96 h, LL29 cells treated with TGF-β1 (20 ng/mL), 4 days, read-out: Inhibition of fibrosis EC50
Description: The above synthesized compounds were screened using primary human fibroblasts (derived from IPF patients) treated with TGF-β1 to determine their ability to inhibit the fibrotic process.
Primary human fibroblasts derived from IPF patients (LL29 cells) [^1Xiaoqiu Liu, et. al., “Fibrotic Lung Fibroblasts Show Blunted Inhibition by cAMP Due to Deficient cAMP Response Element-Binding Protein Phosphorylation”, Journal of Pharmacology and Experimental Therapeutics (2005), 315(2), 678-687; ^2Watts, K. L., et. al., “RhoA signaling modulates cyclin D1 expression in human lung fibroblasts; implications for idiopathic pulmonary fibrosis”, Respiratory Research (2006), 7(1), 88] were obtained from American Type Culture Collection (ATCC) and expanded in F12 medium supplemented with 15% Fetal Bovine Serum and Penicillin/Streptomycin.
Each compound was dissolved in DMSO as a 10 mM stock and used to prepare compound source plates. Serial dilution (1:2, 11-point dose-response curves from 10 μM to 1.87 nM) and compound transfer was performed using the ECHO 550 (Labcyte, Sunnyvale, Calif.) into 384-well clear bottom assay plates (Greiner Bio-One) with appropriate DMSO backfill for a final DMSO concentration of 0.1%. LL29 cells were plated at 1,500 cells/well in 80 μl/well F12 medium supplemented with 1% Fetal Bovine Serum. One hour after addition of the cells, TGF-β1 (Peprotech; 20 ng/mL) was added to the plates to induce fibrosis (ref. 1 and 2 above). Wells treated with TGF-β1 and containing DMSO were used as controls. Cells were incubated at 37° C. and 5% CO2 for 4 days. Following incubation for 4 days, SYTOX green nucleic acid stain (Life Technologies [Thermo Fisher Scientific]) was added to the wells at a final concentration of 1 uM and incubated at room temperature for 30 min. Cells were then fixed using 4% formaldehyde (Electron Microscopy Sciences), washed 3 times with PBS followed by blocking and permeabilization using 3% Bovine Serum Albumin (BSA; Sigma) and 0.3% Triton X-100 (Sigma) in PBS. Cells were then stained with antibody specific to α-smooth muscle actin (αSMA; Abcam) (ref. 1 and 2 above) in 3% Bovine Serum Albumin (BSA; Sigma) and 0.3% Triton X-100 (Sigma) in PBS, and incubated overnight at 4° C. Cells were then washed 3 times with PBS, followed by incubation with Alexa Flor-647 conjugated secondary antibody (Life Technologies [Thermo Fisher Scientific]) and DAPI at room temperature for 1 hour. Cells were then washed 3 times with PBS and plates were sealed for imaging. αSMA staining was imaged by excitation at 630 nm and emission at 665 nm and quantified using the Compartmental Analysis program on the CellInsight CX5 (Thermo Scientific). Dead or apoptotic cells were excluded from analysis based on positive SYTOX green staining. % of total cells positive for αSMA were counted in each well and normalized to the average of 11 wells treated with TGF-β1 on the same plate using Dotmatics' Studies Software. The normalized averages (fold change over untreated) of 3 replicate wells for each compound concentration were used to create dose-responses curves and EC50 values were calculated using non-linear regression curve fit in the Dotmatics' Studies Software. The EC50 values are reported.

[2] = tested on: Wnt activity (SW480 colon carcinoma cells stably expressing the Sp5-Luc reporter gene); assay: Sp5-Luc reporter gene screening assay for Wnt activity; type: cell-based; settings: Homo sapiens
Description: The screening assay for Wnt activity is described as follows. Reporter cell lines can be generated by stably transducing cancer cell lines (e.g., colon cancer) or primary cells (e.g., IEC-6 intestinal cells) with a lentiviral construct that includes a Wnt-responsive promoter driving expression of the firefly luciferase gene.
SW480 colon carcinoma cells were transduced with a lentiviral vector expressing luciferase with a human Sp5 promoter consisting of a sequence of eight TCF/LEF binding sites. SW480 cells stably expressing the Sp5-Luc reporter gene and a hygromycin resistance gene were selected by treatment with 150 μg/ml of hygromycin for 7 days. These stably transduced SW480 cells were expanded in cell culture and used for all further screening activities. For Sp5-Luc reporter gene assays, the cells were plated at 10,000 cells/well in 96-well plates with growth medium containing 10% fetal calf serum and incubated overnight at 37° C. and 5% CO2. Each compound was dissolved in DMSO as a 10 mM stock in standard j-vials and used to prepare compound source plates in dose-response format with 3-fold serial dilutions and a 10 mM top concentration. Compound transfer from serially diluted source plates to assay plates containing the cells was accomplished using a pintool (Multimek 96, Beckman equipped with V&P Scientific FP1S50H pins) based liquid handling protocol. This protocol used a slotted pin to transfer 50 nl of compound from a source plate well to an assay plate well containing 50 μl of cells in growth medium. […] Control wells received 50 nl of DMSO treatment for normalization and calculating IC50 values. The treated cells were incubated at 37° C. and 5% CO2 for an additional forty-two hours. Following incubation, the growth medium was removed and 50 μl of BrightGlo luminescence reagent (Promega) was added to each well of the 96-well assay plates. The plates were placed on an orbital shaker for 5 min and then luminescence was quantified on the Victor3 (Perkin Elmer) plate reader. Readings were normalized to DMSO only treated cells, and normalized activities were utilized for IC50 calculations using the dose-response log (inhibitor) vs. response -variable slope (four parameters) nonlinear regression feature available in GraphPad Prism 5.0 or 6.0.

Row | Structure (SMILES) | EC50 [1] [nM] | IC50 [2] [nM]
1 | c1cc(-c2ccoc2)c2nc(-c3n[nH]c4ncc(-c5cncc(CNCC6CCCC6)c5)cc34)[nH]c2n1 [Compound 282, 1-Cyclopentyl-N-((5-(3-(7-(furan-3-yl)-3H-imidazo[4,5-b]pyridin-2-yl)-1H-pyrazolo[3,4-b]pyridin-5-yl)pyridin-3-yl)methyl)methanamine] | ≥ 9990 | > 10000
2 | Oc1cncc(-c2cnc3[nH]nc(-c4nc5c(-c6cccc(F)c6)ccnc5[nH]4)c3c2)c1 [Compound 921, 5-(3-(7-(3-Fluorophenyl)-3H-imidazo[4,5-b]pyridin-2-yl)-1H-pyrazolo[3,4-b]pyridin-5-yl)pyridin-3-ol] | 164 | 27
3 | CN(C)Cc1cncc(-c2cnc3[nH]nc(-c4nc5c(-c6cccc(F)c6)ccnc5[nH]4)c3c2)c1 [Compound 10, 1-(5-(3-(7-(3-Fluorophenyl)-3H-imidazo[4,5-b]pyridin-2-yl)-1H-pyrazolo[3,4-b]pyridin-5-yl)pyridin-3-yl)-N,N-dimethylmethanamine] | 2550 | > 10000
4 | CC(C)Nc1cncc(-c2cnc3[nH]nc(-c4nc5c(-c6cc(F)cc(NCCN(C)C)c6)ccnc5[nH]4)c3c2)c1 [Compound 426, N^1-(3-Fluoro-5-(2-(5-(5-(isopropylamino)pyridin-3-yl)-1H-pyrazolo [3,4-b]pyridin-3-yl)-3H-imidazo[4,5-b]pyridin-7-yl)phenyl)-N^2,N^2-dimethylethane-1,2-diamine] | 287 | 129
5 | O=C(Nc1cncc(-c2cnc3[nH]nc(-c4nc5c(-c6cccs6)ccnc5[nH]4)c3c2)c1)C1CC1 [Compound 303, N-(5-(3-(7-(Thiophen-2-yl)-3H-imidazo[4,5-b]pyridin-2-yl)-1H-pyrazolo[3,4-b]pyridin-5-yl)pyridin-3-yl)cyclopropanecarboxamide] | ≥ 9990 | 7.7
6 | O=C(Nc1cncc(-c2cnc3[nH]nc(-c4nc5c(-c6ccccc6F)ccnc5[nH]4)c3c2)c1)C1CCCC1 [Compound 61, N-(5-(3-(7-(2-Fluorophenyl)-3H-imidazo[4,5-b]pyridin-2-yl)-1H-pyrazolo[3,4-b]pyridin-5-yl)pyridin-3-yl)cyclopentanecarboxamide] | 587 | 42
7 | O=C(Nc1cncc(-c2cnc3[nH]nc(-c4nc5c(-c6ccncc6)ccnc5[nH]4)c3c2)c1)C1CCCCC1 [Compound 106, N-(5-(3-(7-(Pyridin-4-yl)-3H-imidazo[4,5-b]pyridin-2-yl)-1H-pyrazolo[3,4-b]pyridin-5-yl)pyridin-3-yl)cyclohexanecarboxamide] | ≥ 9990 | > 10000
8 | O=C(Cc1ccccc1)Nc1cncc(-c2cnc3[nH]nc(-c4nc5cccnc5[nH]4)c3c2)c1 [Compound 216, N-(5-(3-(3H-Imidazo[4,5-b]pyridin-2-yl)-1H-pyrazolo[3,4-b]pyridin-5-yl)pyridin-3-yl)-2-phenylacetamide] | ≥ 9990 | 751
9 | CC(C)Nc1cncc(-c2cnc3[nH]nc(-c4nc5c(-c6ccoc6)ccnc5[nH]4)c3c2)c1 [Compound 270, 5-(3-(7-(Furan-3-yl)-3H-imidazo[4,5-b]pyridin-2-yl)-1H-pyrazolo[3,4-b]pyridin-5-yl)-N-isopropylpyridin-3-amine] | 786 | 44.3
10 | CC(=O)c1ccc(-c2ccnc3[nH]c(-c4n[nH]c5ncc(-c6cncc(NC(=O)C7CCCCC7)c6)cc45)nc23)s1 [Compound 384, N-(5-(3-(7-(5-Acetylthiophen-2-yl)-3H-imidazo[4,5-b]pyridin-2-yl)-1H-pyrazolo[3,4-b]pyridin-5-yl)pyridin-3-yl)cyclohexanecarboxamide] | ≥ 9990 | > 10000
11 | Fc1ccc(-c2ccnc3[nH]c(-c4n[nH]c5ncc(-c6cncc(CN7CCCC7)c6)cc45)nc23)cc1 [Compound 33, 3-(7-(4-Fluorophenyl)-3H-imidazo[4,5-b]pyridin-2-yl)-5-(5-(pyrrolidin-1-ylmethyl)pyridin-3-yl)-1H-pyrazolo[3,4-b]pyridine] | 7800 | 144
